Here are results for 25 molecules from patent US8415376B2, “Inhibitors of PI3 kinase” (Amgen Inc., priority 2008, dated 2013).

Broadly, the IC50 is the concentration that gives 50% inhibition.

The target in one test is T1, PI3Kα (Homo sapiens, UniProt P42336).
T1 construct: Full length p110 subunits of PI3K α, β and δ, N-terminally labeled with polyHis tag; polyHis (N); made in house; host or cells: Sf9 insect cells (baculovirus)
Kind of test: In vitro PI3 kinase enzyme assay (PI3K ATP loss), alpha. In kind it is biochemical. As to conditions: average if run more than once; read-out: ATP Loss (PBKα) IC50 μM (Avg).

In a further test the target is T2, PI3Kβ (Homo sapiens, UniProt P42338).
T2 construct: Full length p110 subunits of PI3K α, β and δ, N-terminally labeled with polyHis tag; polyHis (N); made in house; host or cells: Sf9 insect cells (baculovirus)
T2 sequence (P42338 whole entry): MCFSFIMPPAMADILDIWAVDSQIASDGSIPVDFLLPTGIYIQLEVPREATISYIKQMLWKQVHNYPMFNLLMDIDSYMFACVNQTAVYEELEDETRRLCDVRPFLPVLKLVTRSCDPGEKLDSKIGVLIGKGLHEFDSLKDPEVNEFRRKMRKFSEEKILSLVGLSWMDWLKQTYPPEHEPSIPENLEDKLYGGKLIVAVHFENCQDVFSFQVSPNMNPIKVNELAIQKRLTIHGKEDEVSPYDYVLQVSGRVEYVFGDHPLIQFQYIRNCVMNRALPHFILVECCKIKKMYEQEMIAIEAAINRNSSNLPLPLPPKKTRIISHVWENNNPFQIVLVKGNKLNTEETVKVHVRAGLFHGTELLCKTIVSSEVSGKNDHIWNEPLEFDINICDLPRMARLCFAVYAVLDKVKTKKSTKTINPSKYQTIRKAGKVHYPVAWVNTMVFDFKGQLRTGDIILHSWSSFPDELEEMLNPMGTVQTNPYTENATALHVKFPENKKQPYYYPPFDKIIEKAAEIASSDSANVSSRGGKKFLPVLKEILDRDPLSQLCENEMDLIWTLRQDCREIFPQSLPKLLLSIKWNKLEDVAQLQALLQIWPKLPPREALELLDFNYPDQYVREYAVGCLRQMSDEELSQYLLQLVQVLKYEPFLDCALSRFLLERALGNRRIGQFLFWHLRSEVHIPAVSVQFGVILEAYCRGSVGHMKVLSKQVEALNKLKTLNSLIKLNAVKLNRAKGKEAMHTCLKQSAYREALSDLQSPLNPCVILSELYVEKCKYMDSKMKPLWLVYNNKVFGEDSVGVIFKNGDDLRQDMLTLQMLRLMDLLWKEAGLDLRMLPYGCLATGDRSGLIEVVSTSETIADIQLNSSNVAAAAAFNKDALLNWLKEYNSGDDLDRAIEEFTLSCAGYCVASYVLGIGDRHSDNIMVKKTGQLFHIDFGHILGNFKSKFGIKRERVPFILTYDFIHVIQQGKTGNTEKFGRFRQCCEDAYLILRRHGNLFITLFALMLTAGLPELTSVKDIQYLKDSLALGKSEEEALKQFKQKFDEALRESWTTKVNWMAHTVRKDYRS
T2 sequence (P27986 whole entry partner): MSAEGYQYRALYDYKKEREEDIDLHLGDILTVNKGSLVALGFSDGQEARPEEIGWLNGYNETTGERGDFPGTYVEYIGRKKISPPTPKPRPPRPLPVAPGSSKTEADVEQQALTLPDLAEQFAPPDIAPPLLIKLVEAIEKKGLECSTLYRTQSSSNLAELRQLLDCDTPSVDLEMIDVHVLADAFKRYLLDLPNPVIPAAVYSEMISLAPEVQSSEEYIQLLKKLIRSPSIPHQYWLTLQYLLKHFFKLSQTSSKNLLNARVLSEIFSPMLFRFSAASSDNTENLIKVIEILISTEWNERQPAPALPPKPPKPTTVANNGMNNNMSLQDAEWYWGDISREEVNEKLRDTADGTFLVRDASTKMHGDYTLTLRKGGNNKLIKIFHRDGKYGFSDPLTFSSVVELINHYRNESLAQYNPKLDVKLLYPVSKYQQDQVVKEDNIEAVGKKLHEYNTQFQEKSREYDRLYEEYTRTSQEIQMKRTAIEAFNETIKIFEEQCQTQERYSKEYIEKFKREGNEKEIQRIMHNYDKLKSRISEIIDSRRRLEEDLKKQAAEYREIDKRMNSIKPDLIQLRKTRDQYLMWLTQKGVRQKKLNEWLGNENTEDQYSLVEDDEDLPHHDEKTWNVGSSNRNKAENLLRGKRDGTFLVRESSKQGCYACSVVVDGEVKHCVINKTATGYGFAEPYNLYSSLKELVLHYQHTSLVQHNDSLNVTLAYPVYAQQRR
Briefly: In vitro PI3 kinase enzyme assay (PI3K ATP loss), beta. In kind it is biochemical. As to conditions: average if run more than once.

Test [1] has as its system phosphorylation of Akt at Ser473. Kind of test: Cell-based phospho-Akt Ser473 assay (HCT116 cell). As to conditions: HCT 116 human colon carcinoma cells, IGF-1 stimulated; average. An excerpt:
Cell-Based Phospho-Akt Ser473 Assay (HCT116 Cell)
This assay determines the ability of a compound to inhibit the phosphorylation of […] in Akt using a MSD based sandwich immunoassay (Meso Scale Detection, Meso Scale Discovery (MSD), Gaithersburg, Md.). HCT 116 human colon carcinoma cell lines can be grown in McCoy's 5A growth medium (GIBCO, Carlsbad, Calif.) containing 10% FBS (GIBCO, Carlsbad, Calif.) and X1 Penicillin-streptomycin-glutamine (GIBCO, Carlsbad, Calif.). Prior to the assay, cells can be detached from the culture flask with trypsin, and re-suspended in complete media to give a final concentration of 1.6×10^5 cells per mL. Aliquots (100 μl) of the HCT116 cell suspension can be seeded into each well of a 96 well tissue culture plate to give a final density of 16,000 cells per well. Cells can then be incubated overnight at 37° C.
The following day the cells can be treated with serially diluted test compounds and incubated for 2 hours at 37° C. The culture media on the HCT 116 cells can be replaced with 189 μL McCoys media, supplemented with 0.1% BSA (ICN Biomedicals, Inc., Costa Mesa, Calif.). Compounds can be prepared as either 10 mM or 0.5 mM stock solutions in DMSO, and serially diluted 3 fold in a 10-point dose-response curve to give final concentrations that are 200-fold greater than the desired final test concentration. Aliquots (1 μL) of serially-diluted compounds can be transferred to 96 well tissue culture plates containing the HCT 116 cells. […] As a maximum response control, wells can contain 0.5% DMSO in place of compound. The plates can be mixed at 700 rpm for 2 min to ensure even distribution of the test compound and incubated for 2 hours at 37° C. Cells can then be stimulated with insulin-like growth factor 1 (Sigma, St Louis, Mo.) at final concentration of 100 ng/ml for 15 minutes at 37° C. The media can then be removed and the cells treated with 80 μL cell-lysis buffer (MSD) containing a cocktail of protease and phosphatase inhibitors for one hour at 4° C.
25 μL Cell lysate can then be transferred to pre-blocked MSD assay plates pre-coated with a capture antibody specific for Akt, and the plates can be incubated for 2 hours at room temperature. The cell lysates can then be removed and plates can then be washed four times with 200 μl per well of Tris wash buffer (500 mM Tris, PH 7.5, 1.5 M NaCl, 0.2% Tween-20). Subsequently cells can be incubated for 1 hour at room temperature with a 25 μL solution containing the detection antibody, anti-phospho Akt (Ser 473) labeled with an electrochemiluminescent compound (Meso Scale Discovery SULPHO-TAG™ label, MSD, Gaithersburg, Md.). The detection antibody can be removed and plates can then be washed four times with 200 μL per well of Tris wash buffer. An aliquot of 150 μL of diluted MSD read buffer can then be applied to each well, and the electrochemiluminescent signal can be measured using a MSD SECTOR™ plate reader (Meso Scale Discovery, Gaithersburg, Md.). This instrument measures the intensity of emitted light to determine a quantitative measure of phosphorylated Akt in each well. The dose-response data obtained with each compound can be analyzed and the IC50 inhibition of Akt phosphorylation at Ser473 can be calculated.
Activity data for the compounds tested in the PI3K cell based Akt assay is provided in Table 1 under the column heading HCT116 Cell.

T1 sequence (P42336 whole entry): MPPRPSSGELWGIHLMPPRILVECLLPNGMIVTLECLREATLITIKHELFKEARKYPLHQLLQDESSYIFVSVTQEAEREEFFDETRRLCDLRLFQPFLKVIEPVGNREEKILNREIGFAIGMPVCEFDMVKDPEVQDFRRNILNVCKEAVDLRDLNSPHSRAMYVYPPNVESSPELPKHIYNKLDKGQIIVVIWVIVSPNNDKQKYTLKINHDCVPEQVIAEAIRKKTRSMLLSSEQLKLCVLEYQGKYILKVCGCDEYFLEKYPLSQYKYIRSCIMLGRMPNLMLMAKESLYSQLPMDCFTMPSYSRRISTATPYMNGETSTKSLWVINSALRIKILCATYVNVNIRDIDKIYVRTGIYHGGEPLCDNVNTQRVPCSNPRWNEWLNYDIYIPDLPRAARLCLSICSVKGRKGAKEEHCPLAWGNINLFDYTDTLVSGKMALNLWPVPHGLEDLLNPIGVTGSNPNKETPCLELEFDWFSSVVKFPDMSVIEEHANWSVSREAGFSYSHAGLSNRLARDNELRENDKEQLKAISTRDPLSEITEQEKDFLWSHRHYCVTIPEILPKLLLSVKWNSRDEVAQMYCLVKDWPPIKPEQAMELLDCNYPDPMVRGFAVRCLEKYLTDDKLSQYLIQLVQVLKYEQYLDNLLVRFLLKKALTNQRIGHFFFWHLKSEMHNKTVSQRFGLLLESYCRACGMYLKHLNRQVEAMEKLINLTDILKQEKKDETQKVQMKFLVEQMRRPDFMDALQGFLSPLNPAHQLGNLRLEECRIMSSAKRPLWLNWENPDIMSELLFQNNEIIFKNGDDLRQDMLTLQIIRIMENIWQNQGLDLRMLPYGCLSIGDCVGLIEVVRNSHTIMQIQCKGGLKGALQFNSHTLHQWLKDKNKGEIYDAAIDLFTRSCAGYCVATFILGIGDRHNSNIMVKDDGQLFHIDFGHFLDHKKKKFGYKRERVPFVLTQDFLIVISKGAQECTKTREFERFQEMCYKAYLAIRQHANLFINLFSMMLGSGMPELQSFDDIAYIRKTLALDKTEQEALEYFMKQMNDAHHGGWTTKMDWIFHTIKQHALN
T1 sequence (P27986 whole entry partner): as the sequence (P27986 whole entry partner) above
Method for PI3Kα: (§1) Full length p110 subunits of PI3K α, β and δ, N-terminally labeled with polyHis tag, can be co-expressed with p85 with Baculo virus expression vectors in sf9 insect cells. P110/p85 heterodimers can be purified by sequential Ni-NTA, Q-HP, Superdex-100 chromatography. Purified α, β and δ isozymes can be stored at −20° C. in 20 mM Tris, pH 8, 0.2M NaCl, 50% glycerol, 5 mM DTT, 2 mM Na cholate. […] The γ isozyme can be purified by sequential Ni-NTA, Superdex-200, Q-HP chromatography. The γ isozyme can be stored frozen at −80° C. in NaH2PO4, pH 8, 0.2M NaCl, 1% ethylene glycol, 2 mM β-mercaptoethanol.
(§2) In Vitro PI3 Kinase Enzyme Assays (PI3K Atploss)
(§3) PI3K enzyme assays (alpha, beta, delta and gamma) can be performed in 25 μL with the above final concentrations of components in white polyproplyene plates. Phosphatidyl inositol phosphoacceptor, PtdIns(4,5)P2 (eg. P4508) can be obtained from Echelon Biosciences, Salt Lake City, Utah. […] Test compounds can be dissolved in DMSO and diluted with three-fold serial dilutions. The compound in DMSO (1 μL) may be added per test well, and the inhibition relative to reactions containing no compound, with and without enzyme can be determined After assay incubation at RT, the reaction can be stopped and residual ATP can be determined by addition of an equal volume of a commercial ATP bioluminescence kit (Perkin Elmer EasyLite, Perkin Elmer, Waltham, Mass.) according to the manufacturer's instructions, and detected using an Analyst GT luminometer.
Method for PI3Kβ: as §1, §2, §3

In the case of `CC(C)(C)OC(=O)NCCOc1ccnc2ccc(-c3cnc(Cl)c(NS(=O)(=O)c4ccc(F)cc4)c3)cc12` [Example 3, tert-butyl(2-((6-(6-chloro-5-(((4-fluorophenyl)sulfonyl)amino)-3-pyridinyl)-4-quinolinyl)oxy)ethyl)carbamate], the IC50 at PI3Kα was determined as 0.0678 µM; at PI3Kβ it was 0.682 µM; in test [1], 1.66 µM.
In the case of `COc1cnc2ccc(-c3cnc(Cl)c(NS(=O)(=O)c4ccc(F)cc4)c3)cc2c1` [Example 4, N-(2-chloro-5-(3-methoxy-6-quinolinyl)-3-pyridinyl)-4-fluorobenzenesulfonamide], the IC50 at PI3Kα was found to be 0.0162 µM; against PI3Kβ it was 0.0253 µM; in test [1], 0.186 µM.
Regarding `CS(=O)(=O)Nc1cc(-c2ccc3nccc(Oc4ccccc4)c3c2)cnc1Cl` [Example 5, N-(2-chloro-5-(4-phenoxy-6-quinolinyl)-3-pyridinyl)methanesulfonamide], the results for the IC50 (at PI3Kα; against PI3Kβ; in test [1]) were 0.255 µM, 0.105 µM and 1.14 µM, respectively.
Regarding `O=S(=O)(Nc1cc(-c2ccc3ncccc3c2)cnc1Cl)c1ccc(F)cc1` [Example 7, N-(2-chloro-5-(6-quinolinyl)-3-pyridinyl)-4-fluorobenzenesulfonamide], the concentration for half-maximal inhibition (IC50) on PI3Kα amounted to 0.0099 µM; on PI3Kβ, 0.0277 µM; in test [1], 1.3 µM.
For `COc1ccnc2ccc(-c3cnc(Cl)c(NS(=O)(=O)c4ccc(F)cc4)c3)cc12` [Example 8, N-(2-chloro-5-(4-methoxy-6-quinolinyl)-3-pyridinyl)-4-fluorobenzenesulfonamide] the same measures were 0.0127 µM, 0.0147 µM and 0.222 µM.
For the molecule `CS(=O)(=O)Nc1cc(-c2ccc3nccc(Cl)c3c2)cnc1Cl` [Example 9, N-(2-chloro-5-(4-chloro-6-quinolinyl)-3-pyridinyl)methanesulfonamide], the IC50 was 0.0142 µM at PI3Kα, 0.052 µM at PI3Kβ and 2.06 µM in test [1].
For `COc1cnc2ccc(-c3cnc(Cl)c(NS(C)(=O)=O)c3)cc2c1` [Example 10, N-(2-chloro-5-(3-methoxy-6-quinolinyl)-3-pyridinyl)methanesulfonamide] the same measures were 0.0424 µM, 0.166 µM and 0.348 µM.
For `CS(=O)(=O)Nc1cc(-c2ccc3nccc(N4CCOCC4)c3c2)cnc1Cl` [Example 11, N-(2-chloro-5-(4-(4-morpholinyl)-6-quinolinyl)-3-pyridinyl)methanesulfonamide] the same measures were 0.0458 µM, 0.156 µM and 0.0501 µM.
With `CN(C)c1cc(-c2ccc3ncccc3c2)cnc1Cl` [Example 13, 2-chloro-N,N-dimethyl-5-(6-quinolinyl)-3-pyridinamine], on PI3Kα, the IC50 amounted to 1.12 µM.
On to `OCc1cc(-c2ccc3nccc(N4CCOCC4)c3c2)cnc1Cl` [Example 14, (2-chloro-5-(4-(4-morpholinyl)-6-quinolinyl)-3-pyridinyl)methanol], for which the figures for the IC50 at PI3Kα and on PI3Kβ were 1.13 µM and 5.42 µM, respectively.
For `CC(=O)OCc1cc(-c2ccc3nccc(N4CCOCC4)c3c2)cnc1Cl` [Example 15, (2-chloro-5-(4-(4-morpholinyl)-6-quinolinyl)-3-pyridinyl)methyl acetate] the same measures were 1.39 µM and 3.67 µM.
In the case of `NCc1cc(-c2ccc3nccc(N4CCOCC4)c3c2)cnc1Cl` [Example 16, 1-(2-chloro-5-(4-(4-morpholinyl)-6-quinolinyl)-3-pyridinyl)methanamine], the half-inhibitory concentration (IC50) at PI3Kα was found to be 3.53 µM; on PI3Kβ, 26.7 µM.
On to `CC(C)(C)C(=O)NCc1cc(-c2ccc3nccc(N4CCOCC4)c3c2)cnc1Cl` [Example 17, N-((2-chloro-5-(4-(4-morpholinyl)-6-quinolinyl)-3-pyridinyl)methyl)-2,2-dimethylpropanamide], for which the IC50 stood at 3.11 µM at PI3Kα and 27.4 µM on PI3Kβ.
For `O=S(=O)(Nc1cc(-c2ccc3cccnc3c2)cnc1Cl)c1ccc(F)cc1` [Example 18, N-(2-chloro-5-(7-quinolinyl)-3-pyridinyl)-4-fluorobenzenesulfonamide] the same measures were 1.97 µM and 7.7 µM.
On to `CC(C)N1CCN(c2cnc3ccc(-c4cnc(Cl)c(NS(=O)(=O)c5ccc(F)cc5)c4)cc3n2)CC1` [Example 21, N-(2-chloro-5-(3-(4-(1-methylethyl)-1-piperazinyl)-6-quinoxalinyl)-3-pyridinyl)-4-fluorobenzenesulfonamide], for which the IC50 worked out at 0.0054 µM at PI3Kα and 0.0115 µM in test [1].
For `O=S(=O)(Nc1cc(-c2ccc3nccc(N4CCN(Cc5ccccc5)CC4)c3c2)cnc1Cl)c1ccc(F)cc1` [Example 28, N-(5-(4-(4-benzyl-1-piperazinyl)-6-quinolinyl)-2-chloro-3-pyridinyl)-4-fluorobenzenesulfonamide], the IC50 on PI3Kα was found to be 0.0062 µM; at PI3Kβ, 0.0339 µM.
For `O=S(=O)(Nc1cc(-c2ccc3nnccc3c2)cnc1Cl)c1ccc(F)cc1` [Example 37, N-(2-chloro-5-(6-cinnolinyl)-3-pyridinyl)-4-fluorobenzenesulfonamide] the same measures were 0.0783 µM and 0.212 µM.
For `O=S(=O)(Nc1cc(-c2cccc3cnncc23)cnc1Cl)c1ccc(F)cc1` [Example 39, N-(2-chloro-5-(5-phthalazinyl)-3-pyridinyl)-4-fluorobenzenesulfonamide] the same measures were 1.9 µM and 4.12 µM.
For `O=S(=O)(Nc1cc(-c2ccc3cnncc3c2)cnc1Cl)c1ccc(F)cc1` [Example 40, N-(2-chloro-5-(6-phthalazinyl)-3-pyridinyl)-4-fluorobenzenesulfonamide] the same measures were 0.899 µM and 0.698 µM.
Regarding `O=S(=O)(Nc1cc(-c2cnc3ncccc3c2)cnc1Cl)c1ccc(F)cc1` [Example 44, N-(2-chloro-5-(1,8-naphthyridin-3-yl)-3-pyridinyl)-4-fluorobenzenesulfonamide], the IC50 on PI3Kα came out at 2.84 µM; at PI3Kβ, 5.61 µM.
For `CNc1ccc2cc(-c3cnc(Cl)c(NS(=O)(=O)c4ccc(OC)cc4)c3)ccc2n1` [Example 48, N-(2-chloro-5-(2-(methylamino)-6-quinolinyl)-3-pyridinyl)-4-methoxybenzenesulfonamide] the same measures were 0.0954 µM and 2.49 µM.
For `CN(C)c1cc(-c2ccc3nccc(N4CCOCC4)c3c2)cnc1Cl` [Example 51, 2-chloro-N,N-dimethyl-5-(4-(4-morpholinyl)-6-quinolinyl)-3-pyridinamine] the same measures were 0.179 µM and 2.46 µM.
For `CN(C)c1cc(-c2ccc3nccc(Cl)c3c2)cnc1Cl` [Example 52, 2-chloro-5-(4-chloro-6-quinolinyl)-N,N-dimethyl-3-pyridinamine] the same measures were 0.43 µM and 2.24 µM.
Turning to `CC(c1ccccc1)N1CCN(c2ccnc3ccc(-c4cnc(Cl)c(N(C)C)c4)cc23)CC1` (stereo not drawn) [Example 53, 2-chloro-N,N-dimethyl-5-(4-(4-(1-phenylethyl)-1-piperazinyl)-6-quinolinyl)-3-pyridinamine], the values for the IC50 at PI3Kα and against PI3Kβ were 0.294 µM and 4.22 µM, respectively.
As to `COCCNc1cnc2ccc(-c3cnc(Cl)c(NS(=O)(=O)c4ccc(F)cc4)c3)cc2n1` [Example 73, N-(2-chloro-5-(3-((2-methoxyethyl)amino)-6-quinoxalinyl)-3-pyridinyl)-4-fluorobenzenesulfonamide], the figures for the IC50 (against PI3Kβ; in test [1]) were 0.0334 µM and 0.0595 µM, respectively.
